In Sander's compilation of Henry's law constants (doi:10.1515/zpch-1906-5519):

Assay: Henry solubility constant Hcp at 298.15 K (mol/(m3 Pa))
Conditions: reference: Rex (1906)

Row | SMILES | Henry solubility constant Hcp
1 | CCCBr [1-bromopropane] | 0.0011
2 | CCCI [1-iodopropane] | 0.001
3 | CC(C)Br [2-bromopropane] | 0.0009
4 | CC(C)Cl [2-chloropropane] | 0.00056
5 | CC(C)I [2-iodopropane] | 0.00085
6 | CCBr [bromoethane] | 0.0013
7 | S=C=S [carbon disulfide] | 0.00054
8 | BrCBr [dibromomethane] | 0.011
9 | ClCCl [dichloromethane] | 0.0041
10 | CCI [iodoethane] | 0.0015
11 | CI [iodomethane] | 0.0019
12 | ClC(Cl)(Cl)Cl [tetrachloromethane] | 0.00035
